This note sets out measurements from patent US20030104946A1, “Herbicidal mixture comprising a benzoyl derivative, a fertilizer containing nitrogen and an adjuvant” (priority 2001, published 2003).

For data set [1], the system named is ORYSP (Transplanted Paddy Rice). Put plainly: Effect on weeds in rice by water application (Example 3). Type of data set: in vivo. Conditions: mixtures of Table 4. From the text: Seeds of the various weed species and rice were planted in a sandy-loamy soil in a greenhouse under good growth conditions. Three weeks after sowing the tank mixture containing the formulated test compound was applied to the plants submerged in the paddy water. The plants were visually assessed three weeks after application, and the percentage control of the plants is-shown in Table 4 in comparison with untreated controls.

A further data set relates to ZEAMA (Maize). Put plainly: Weed control postemergence in maize under field conditions, outdoor pot trial (Example 4). To be noted: Tables 5 and 6. Type of data set: in vivo. From the text: Seeds of various crop and weed species were planted in a sandy-loamy soil and placed in a climate chamber in a greenhouse under good growth conditions. Four weeks after sowing, the plants were sprayed with a tank mixture containing the formulated test compound at a spray rate of 300 l/ha of spray solution. The plants were visually assessed fourteen days after application, and the percentage control of the plants is shown in Tables 1 and 2.
Using the method of Example 1 but in an outdoor pot trial in the field there were obtained the following results shown in Tables 5, 6 and 7. […]

With `CCS(=O)(=O)c1ccc(C(=O)C2C(=O)CCCC2=O)c(Cl)c1C1=NOC(CC#N)C1` (centres unmarked) [B2, 2-[2-chloro-3-(5-cyanomethylisoxazolin-3-yl)-4-ethylsulfonylbenzoyl]cyclohexane-1,3-dione], the rice damage result in data set [1] was “No rice damage was observed”. Moreover, the maize damage result in the data set with ZEAMA (Maize) is reported as “No maize damage was observed”.
